Measurements taken from patent publication US8637493B2, “Methods for treating glioblastoma” (University of Massachusetts, priority 2009, dated 2014).

How the values were obtained:
Hey1 = assay: RT-PCR / qRT-PCR of Notch target Hey1 mRNA in neurosphere cultures after DAPT; format: cell-based, human; conditions: for decrease of Hey1 mRNA level: 48 hours after treatment, RT-PCR; for Hey1 expression (qRT-PCR): 1 μM DAPT, 48 hours
Procedure: TMZ concentrations for each culture were selected based on previous experiments (Mihaliak et al., Cancer Letts. 296, 168-177 (2010)) DAPT and LY concentrations were chosen for each culture based on the decrease in Hes1 and Hey1 expression. RNA was isolated from the cultures 48 hours after DAPT treatment, and Hes1 and Hey1 cDNA expression levels were analyzed by PCR or qPCR.
RT-PCR and RT-qPCR were performed as follows. Neurosphere cultures were pelleted and tumor tissues from subcutaneous xenografts were broken into a powder using a BioPulverizer (Biospec Products, Inc., Bartlesville, Okla.). RNA was isolated from neurosphere cultures and frozen tumor samples using TRIzol Reagent (Invitrogen, Carlsbad, Calif.), following the manufacturer's protocol. RNA was treated with DNase I, Amplification Grade (Invitrogen, Carlsbad, Calif.). cDNA was made using the SuperScript II Reverse Transcription (RT) Kit with Oligo(dT)12-18 primers (Invitrogen, Carlsbad, Calif.), followed by a 20 minute incubation at 37° C. with RNaseH. PCR was carried out using Taq DNA Polymerase, following the manufacturer's protocol (Invitrogen, Carlsbad, Calif.). Real time qPCR was carried out using QuantiTect SYBR Green (QIAGEN, Valencia, Calif.). Hes1 and β-Actin primers were developed using Primer3 (Rozen and Skaletsky, Methods Mol Biol 2000; 132: 365-86). Hes1 forward primer: 5″ […] 3″ (SEQ ID NO:1) and reverse primer: 5″ […] 3″ (SEQ ID NO:2). β-Actin (RT-PCR) forward primer: 5″[…] 3″ (SEQ ID NO:3) and reverse primer: 5″ […] 3″ (SEQ ID NO:4). β-Actin (qRT-PCR) forward primer: 5″[…] 3″ (SEQ ID NO:5) and reverse primer: 5″ […] (SEQ ID NO:6). Primers for Hey1 (Osipo et al., Oncogene 2008; 27: 5019-32), Notch1 (Lefort et al., Genes Dev 2007; 21: 562-77), Notch2 (O'Neill et al., Am J Pathol 2007; 171: 1023-36), Notch3 (Buchler et al., Ann Surg 2005; 242: 791-800, discussion −1) and Notch4 (Buchler et al., Ann Surg 2005; 242: 791-800, discussion −1) were previously published, RT-PCR products were analyzed on 2% agarose gels. tantification of band intensity for DAPT treated lines was determined using ImageJ (Rasband W S. ImageJ, U.S. National Institutes of Health, Bethesda, Md., USA. 1997-2004). cDNA levels for qRT-PCR products were calculated using the PFAFFL method (Pfaffl, Nucleic Acids Res 2001; 29: e45).

U87NS-NICD = assay: Neurosphere recovery assay, U87NS-NICD (constitutive Notch1 intracellular domain); format: cell-based, human
Procedure: (§1) Neurosphere cultures were dissociated to single cell suspensions by pH dissociation followed by filtration through 40 μm screens. For the neurosphere assay, 3,000 cells/ml of defined medium were seeded in 6-well plates. Immediately after plating, cells were treated with DMSO (Research Organics, Cleveland, Ohio) carrier control, TMZ-only, DAPT-only, or TMZ+DAPT. Additional DAPT was added on days 2 and 4. Neurospheres consisting of 10 or more cells were counted under a light microscope on day 7 for the converted cell lines. Primary lines have a slightly longer doubling time and were counted on day 10. After counting the neurospheres from the initial treatment, 2 ml of fresh defined medium was added to each well. DAPT was also added once more to the DAPT-only and TMZ+DAPT samples, and the cells were incubated for an additional 7 or 10 days. Neurospheres from the recovery period were counted on day 14 or day 20. To analyze secondary neurosphere formation, cells were collected, pelleted and dissociated to a single cell suspension by the pH method. Cells from each well were re-seeded into 6-well plates with 2 ml of defined medium. The number of secondary neurospheres formed by converted cell lines and primary cultures were counted on day 21 or day 30, respectively. All recovery assays were repeated with a minimum of 6 replicate sets of time points. […]

U87NS xenografts = assay: In vivo treatment of pre-existing subcutaneous U87NS xenografts; parameters: species or system nude mice
Procedure: We tested the effect of in vivo TMZ+GSI treatments on pre-existing subcutaneous glioma xenografts. […] When the tumor reached approximately 150 mm^3 (volume=([…])(π)(length/2)(width/2)^2), we began the following treatments: 1) DMSO control: two days of 100 μl DMSO/PBS (1:1) intraperitoneal (i.p.) injections; 2) TMZ-only: injections of TMZ (20 mg/kg) in 100 μl DMSO/PBS on days one and two; 3) LY chow-only: two days of 100 μl DMSO/PBS i.p. injections. […] The mice were fed LY chow from day 3 to 12.

U87NS-pMIG = assay: Neurosphere recovery assay, empty vector U87NS-pMIG; format: cell-based, human; conditions: empty vector control
Procedure: as §1

Row | SMILES | decrease of Hey1 mRNA level (Hey1; U87NS, DAPT 1 μM) [%] | Hey1 expression (qRT-PCR) (Hey1; U87NS-NICD) | Hey1 expression (qRT-PCR) (Hey1; U87NS-pMIG) | decrease of Hey1 mRNA level (Hey1; U373NS, DAPT 5 μM) [%] | recovery: increase in neurospheres (U87NS-NICD) [fold] | mice / xenografts with tumor progression (tumor volume doubled) (U87NS xenografts; TMZ 20 mg/kg i.p. days 1-2, LY chow day 3 to 12) | average time until tumor volume doubled (progression) (U87NS xenografts; after treatment, progressing mice only) [days] | mice that succumbed to progression (U87NS xenografts; in vivo TMZ treatment) [%] | recovery: increase in neurospheres (U87NS-pMIG) [fold]
1 | C[C@H](NC(=O)Cc1cc(F)cc(F)c1)C(=O)N[C@H](C(=O)OC(C)(C)C)c1ccccc1 [DAPT, N-[N-(3,5-difluorophenacetyl)-L-alanyl]-(S)-phenylglycine t-butyl ester] | 76 | minimal decrease | decreased | 51 |  |  |  |  | 
2 | Cn1nnc2c(C(N)=O)ncn2c1=O [TMZ, temozolomide] |  |  |  |  | 2.3 | 8/8 | 23 ± 7 | 100 | 1.9
